{"source": "patent US20090326633A1", "about": "“CONTROLLED RELEASE ENDOPROSTHETIC DEVICE” (BOEHRINGER INGELHEIM PHARMA GMBH & CO. KG, priority 2001, published 2009)", "test_system": "muscle cells", "experiment": "Cell proliferation ELISA, BrdU incorporation into DNA (inhibition of DNA synthesis)", "format": "cell-based", "conditions": "stents loaded with dipyramidole", "from_the_text": "Incorporation of BrdU instead of thymidine into the DNA, measurement with anti-BrdU-POD antibody (Cell proliferation ELISA, BrdU; obtained from Roche Diagnostics, Mannheim, Germany)\nThe following results have been obtained using this test with the stents loaded with dipyramidole according to the present invention: […]"}
{"compound": "OCCN(CCO)c1nc(N2CCCCC2)c2nc(N(CCO)CCO)nc(N3CCCCC3)c2n1", "note": "[dipyridamole, 2,6-bis(diethanolamino)-4,8-dipiperidino-pyrimido[5,4-d]pyrimidine]", "values": [{"measurement": "IC50", "setting": "muscle cells stimulated with PDGF-BB", "value": "100 to 300", "unit": "nM"}, {"measurement": "IC50", "setting": "muscle cells without stimulation", "value": "1000 to 3000", "unit": "nM"}, {"measurement": "IC50", "setting": "with freshly prepared medium", "value": "4000 to 10000", "unit": "nM"}]}
